Publication PMC7927146, “Discovery of an Orally Available Diazabicyclooctane Inhibitor (ETX0282) of Class A, C, and D Serine β-Lactamases” (Journal of Medicinal Chemistry, 2020)
Where a name gives a salt, the structure may show the parent alone. Blank lines part the entries; values can stand above or below the molecule they belong to.

Tests used:
[1] = Buffer stability of ester prodrugs; format: physicochemical; settings: potassium phosphate buffer pH 7.4, 37 °C; for Half-life, pH 7.4 buffer: 10 μM
Protocol: Buffer stability (potassium phosphate buffer, pH 7.4) was evaluated using the same protocol but without adding the S9 subcellular fractions.

[2] = Stability in intestinal S9 fraction; format: in vitro ADME, rat; settings: for half-life at 10 μM: rat, intestinal S9 fraction, pH 7.4
Protocol: (§1) Liver and intestinal S9 subcellular fractions (Xenotech) from rat and human tissue were diluted to a protein concentration of 0.8 mg/mL in 100 mM potassium phosphate buffer, pH 7.4, and preincubated in a 37 °C water bath for 5 min prior to addition of 10 μM (final) of compound of interest. Serial aliquots were removed at 0, 2, 5, 10, 20, 40, and 60 min and quenched in acetonitrile with internal standard prior to LC/MS/MS[30] to determine concentrations of prodrug. First order degradation half-lives were determined from the slope of the log–linear plots of the depletion data.

[3] = Stability in liver S9 fraction; format: in vitro ADME, rat; settings: 37 °C; for Half-life, Rat liver S9: 0.8 mg/mL protein, 10 μM
Protocol: as §1

[4] = Stability in intestinal S9 fraction; format: in vitro ADME, human; settings: for half-life at 10 μM: human, intestinal S9 fraction, pH 7.4
Protocol: as §1

[5] = Stability in liver S9 fraction; format: in vitro ADME, human; settings: 37 °C; for Half-life, Human liver S9: 0.8 mg/mL protein, 10 μM
Protocol: as §1

[6] = target: P. aeruginosa AmpC (Class C) (Pseudomonas aeruginosa, UniProt P24735); experiment: β-lactamase inhibition, nitrocefin hydrolysis progress curves; format: biochemical
[7] = target: K. pneumoniae OXA-48 (Class D) (Klebsiella pneumoniae, UniProt Q6XEC0); experiment: biochemical
[8] = tested on: E. coli ARC3627 (OXA-1, AmpC, CTX-M-15, TEM-1); experiment: Broth microdilution MIC (BLI alone, cefpodoxime, cefpodoxime + BLI); format: cell-based; settings: for MIC: Escherichia coli
[9] = tested on: K. pneumoniae ARC561 (OKP-6, AmpC, OXA-2, SHV-18) ATCC700603; experiment: as above; format: cell-based; settings: for MIC: Klebsiella pneumoniae, ATCC700603
log D = format: physicochemical
[10] = cited from earlier work
E. coli TEM-1 (Class A) = E. coli TEM-1 (Class A) (Escherichia coli, UniProt P62593); experiment: β-lactamase inhibition, nitrocefin hydrolysis progress curves; format: biochemical; settings: supplement CSV; incubation time not given, values correspond to 60 min
[11] = tested on: E. coli ARC2687 (CTX-M-14, AmpC); experiment: Broth microdilution MIC; format: cell-based; settings: Escherichia coli, agent alone
Protocol: (§2) The potency and spectrum of β-lactamase inhibition by ETX1317 supported further antibacterial profiling in combination with β-lactams against relevant Gram-negative clinical isolates. Approved penicillins and cephalosporins administered orally were evaluated, using not only MIC as a criterion but also oral bioavailability, approved dose levels, and unbound plasma exposures. Cefpodoxime (CPD) emerged as the lead β-lactam candidate.[30] Its approved use as an orally bioavailable proxetil ester prodrug to treat UTI infections was also aligned with our potential target product profile. A fixed 1:2 ratio of cefpodoxime/ETX1317 was utilized as the testing paradigm for antimicrobial susceptibility. […] The addition of ETX1317 to CPD restored its activity to ≤0.5 μg/mL across all Enterobacterales isolates tested, including the CRE strains (identified by “a” in Table 6).
(§3) The broth microdilution susceptibility testing was conducted according to CLSI[39] using CAMHB. Durlobactam and avibactam were synthesized at Entasis Therapeutics. Cefpodoxime (catalog no. J66225) was purchased from Alfa Aesar.

[12] = 14-day GLP toxicology study, daily oral administration; settings: in vivo
Protocol: (§4) The safety of ETX0282 was investigated with a 14-day toxicology study under Good Laboratory Practice (GLP) in rats and dogs following daily oral administration. The doses of 500 mg kg^–1 day^–1 and 400 mg kg^–1 day^–1 were established as the NOAELs (no observed adverse effect level) for rats and dogs, respectively.

[13] = Phase 1 clinical trials in healthy volunteers (NCT03491748); format: in vivo, human; settings: alone or in combination with cefpodoxime proxetil
Protocol: as §4

[14] = Intravenous and oral pharmacokinetics in rats; settings: rat, 10 mg/kg equivalent dose of ETX1317
[15] = tested on: MDR Enterobacterales clinical isolates; experiment: Broth microdilution MIC, statements over the isolate panel; format: cell-based; settings: read-out: MIC across the clinical isolates of Table 6
Protocol: as §2, §3

E. coli ARC2687 = experiment: Neutropenic mouse thigh infection model; format: in vivo; settings: CPDP alone, po, q6h
[16] = target: class A, C, and D serine β-lactamases; experiment: β-lactamase inhibition, statements over the enzyme panel; format: biochemical; settings: 60 min; TEM-1, AmpC, OXA-48; read-out: IC50 against β-lactamases, all values
Protocol: The spectrum of class A, C, and D β-lactamase inhibition by ETX1317 was evaluated by measuring its ability to protect the β-lactamase substrate nitrocefin from degradation using previously described methods.[13]
The methods used to measure inhibition of β-lactamases were the same as those described in the supplement to Durand-Reville et al.[13] Reaction progress curves at 490 nm for hydrolysis of the chromogenic β-lactamase substrate nitrocefin (SynGene, Bangalore, India) at 100 μM were measured for a range of inhibitor concentrations in 0.1 M sodium phosphate (pH 7.0), 10 mM NaHCO3, and 0.005% Triton X-100 at ambient temperature using a Spectramax absorbance plate reader (Molecular Devices, Sunnyvale, CA). The set of 12 progress curves were fit globally to a second-order kinetic model of enzyme inactivation. […] The second-order inactivation rate constant kinact/Ki was calculated from the set of progress curves using Global Kinetic Explorer (Kintek) as previously described.[13]

[17] = 0.8 mg/mL protein, 10 μM, 37 °C
[18] = species not given in the sentence, read-out: t1/2, stability to intestinal esterases

E. coli TEM-1 (Class A), sequence (P62593 24-286 limits assumed): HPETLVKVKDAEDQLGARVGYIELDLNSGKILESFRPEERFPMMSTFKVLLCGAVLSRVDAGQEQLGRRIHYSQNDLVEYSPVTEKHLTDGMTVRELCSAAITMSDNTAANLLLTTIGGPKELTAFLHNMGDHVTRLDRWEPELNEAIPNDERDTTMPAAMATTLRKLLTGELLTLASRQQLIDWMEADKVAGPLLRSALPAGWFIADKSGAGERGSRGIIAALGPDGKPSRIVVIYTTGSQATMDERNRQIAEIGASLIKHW
P. aeruginosa AmpC (Class C), sequence (P24735 27-397): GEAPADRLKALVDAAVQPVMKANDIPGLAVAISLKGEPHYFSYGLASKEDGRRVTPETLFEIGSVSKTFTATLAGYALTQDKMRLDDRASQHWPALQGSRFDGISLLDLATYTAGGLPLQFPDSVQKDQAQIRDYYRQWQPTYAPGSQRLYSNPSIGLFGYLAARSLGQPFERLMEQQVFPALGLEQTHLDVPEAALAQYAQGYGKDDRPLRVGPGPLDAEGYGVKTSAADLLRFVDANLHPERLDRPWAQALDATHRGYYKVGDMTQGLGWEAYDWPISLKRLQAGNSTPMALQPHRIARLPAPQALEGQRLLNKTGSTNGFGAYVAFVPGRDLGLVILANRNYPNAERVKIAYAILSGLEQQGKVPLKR
K. pneumoniae OXA-48 (Class D), sequence (Q6XEC0 23-265, looked up): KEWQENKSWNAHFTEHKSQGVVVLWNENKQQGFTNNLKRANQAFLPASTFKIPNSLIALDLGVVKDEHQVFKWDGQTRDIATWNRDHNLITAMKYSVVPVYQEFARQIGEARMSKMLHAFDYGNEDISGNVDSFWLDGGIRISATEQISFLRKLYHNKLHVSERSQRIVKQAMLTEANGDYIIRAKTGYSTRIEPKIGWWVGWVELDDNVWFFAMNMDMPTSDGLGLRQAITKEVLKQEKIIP

half-life at 10 μM ([1]; potassium phosphate buffer without S9 fractions): 26 min
half-life at 10 μM ([2]; 0.8 mg/mL protein, 10 μM, 37 °C, read-out: Half-life, Rat intestinal S9): 20 min
half-life at 10 μM ([3]; rat, liver S9 fraction, pH 7.4, 0.8 mg/mL protein): 10 min
half-life at 10 μM ([4]; 0.8 mg/mL protein, 10 μM, 37 °C, read-out: Half-life, Human intestinal S9): 22 min
half-life at 10 μM ([5]; human, liver S9 fraction, pH 7.4, 0.8 mg/mL protein): 9.9 min
SMILES: CCOC(=O)[C@H](F)ON1C(=O)N2C[C@H]1C=C(C)[C@H]2C(=O)NCCNS(N)(=O)=O [Compound 19]

SMILES: CC1=C[C@@H]2CN(C(=O)N2OS(=O)(=O)O)[C@@H]1C(N)=O [Durlobactam, durlobactam]
IC50 ([6]; IC50 10 min, P. aeruginosa AmpC (Class C), 10 min incubation): 0.008 ± 0.003 µM
IC50 ([6]; IC50 60 min, P. aeruginosa AmpC (Class C), 60 min incubation): 0.0058 µM
IC50 ([7]; IC50 10 min, 10 min incubation): 24 ± 6 nM
IC50 ([7]; IC50 60 min, 60 min incubation): 5 nM
MIC [8]: 0.25 µg/mL
MIC [9]: 8 µg/mL
logD (log D): < 0
oral bioavailability F [10]: < 10%

SMILES: CC1=C[C@@H]2CN(C(=O)N2O[C@H](F)C(=O)O)[C@@H]1C(N)=O [Compound 4]
IC50 (E. coli TEM-1 (Class A)): 0.001 µM
fold reduction of cefpodoxime MIC compared to the MIC with no BLI ([8]; E. coli ARC3627, BLI 4 μg/mL): greater than 128 fold
fold reduction of cefpodoxime MIC compared to the MIC with no BLI ([9]; K. pneumoniae ARC561, BLI 4 μg/mL): greater than 128 fold

SMILES: CC1=C[C@@H](C(N)=O)N2C[C@@H]1N(O[C@@H](F)C(=O)OC(C)C)C2=O [Compound 21]
Half-life, pH 7.4 buffer [1]: 91 min
Half-life, Rat intestinal S9 [2, 17]: 68 min
Half-life, Rat liver S9 [3]: 3 min
Half-life, Human intestinal S9 [4, 17]: 36 min
Half-life, Human liver S9 [5]: 8.5 min

logD (log D): < 0
SMILES: NC(=O)[C@@H]1CC[C@@H]2CN1C(=O)N2OS(=O)(=O)O [Avibactam, avibactam]
oral bioavailability F [10]: < 10%

MIC [11]: 0.03 µg/mL
SMILES: C[C@@H](O)[C@H]1C(=O)N2C(C(=O)O)=C(S[C@@H]3CN[C@H](C(=O)N(C)C)C3)[C@H](C)[C@H]12 [meropenem]

MIC [11]: > 4 µg/mL
SMILES: C[C@H]1COc2c(N3CCN(C)CC3)c(F)cc3c(=O)c(C(=O)O)cn1c23 [levofloxacin]

SMILES: CCOC(=O)[C@@H](F)ON1C(=O)N2C[C@H]1C=C(C)[C@H]2C(N)=O [Compound 15]
Half-life, pH 7.4 buffer [1]: 41 min
Half-life, Rat intestinal S9 [2, 17]: 39 min
Half-life, Rat liver S9 [3]: 4.4 min
Half-life, Human intestinal S9 [4, 17]: 38 min
Half-life, Human liver S9 [5]: 6.5 min

SMILES: CC1=C[C@@H](C(N)=O)N2C[C@@H]1N(O[C@H](F)C(=O)OC(C)C)C2=O [Compound 23, (2R)-Isopropyl 2-(((2S,5R)-2-Carbamoyl-4-methyl-7-oxo-1,6-diazabicyclo[3.2.1]oct-3-en-6-yl)oxy)-2-fluoroacetate]
Half-life, pH 7.4 buffer [1]: 186 min
Half-life, Rat intestinal S9 [2, 17]: 240 min
Half-life, Rat liver S9 [3]: 32 min
Half-life, Human intestinal S9 [4, 17]: 163 min
Half-life, Human liver S9 [5]: 39 min
NOAEL at 14 day ([12]; dog, dogs): 400 mg/kg/day
NOAEL at 14 day ([12]; rat, rats): 500 mg/kg/day
serious adverse events [13]: no serious adverse events reported
tolerability [13]: generally well-tolerated
circulating concentrations of ETX0282 after oral ETX0282 [14]: no circulating concentrations of ETX0282 observed

SMILES: CC1=C[C@@H](C(N)=O)N2C[C@@H]1N(O[C@H](F)C(=O)O)C2=O [Compound 13, (2R)-2-(((2S,5R)-2-Carbamoyl-4-methyl-7-oxo-1,6-diazabicyclo[3.2.1]oct-3-en-6-yl)oxy)-2-fluoroacetic Acid Lithium Salt]
IC50 (E. coli TEM-1 (Class A)): 0.003 µM
IC50 ([6]; IC50 (µM) P. aeruginosa AmpC (Class C), supplement CSV, incubation time not given, values correspond to 60 min): 0.16 µM
MIC [9]: 16 µg/mL

SMILES: CCOC(=O)[C@H](F)ON1C(=O)N2C[C@H]1C(C)=C[C@H]2C(N)=O [Compound 20]
Half-life, pH 7.4 buffer [1]: 22 min
Half-life, Rat intestinal S9 [2, 17]: 18 min
Half-life, Rat liver S9 [3]: 2.4 min
Half-life, Human intestinal S9 [4, 17]: 6.9 min
Half-life, Human liver S9 [5]: 2.4 min

MIC [8]: 0.5 µg/mL
SMILES: CC1=C[C@@H](C(N)=O)N2C[C@@H]1N(O[C@@H](F)C(=O)O)C2=O [Compound 14]

SMILES: CCOC(=O)[C@@H](F)ON1C(=O)N2C[C@H]1C(C)=C[C@H]2C(N)=O [Compound 22, Ethyl (2R)-2-[[(2S,5R)-2-Carbamoyl-4-methyl-7-oxo-1,6-diazabicyclo[3.2.1]oct-3-en-6-yl]oxy]-2-fluoro-acetate]
Half-life, pH 7.4 buffer [1]: 44 min
Half-life, Rat intestinal S9 [2, 17]: 42 min
Half-life, Rat liver S9 [3]: 20 min
Half-life, Human intestinal S9 [4, 17]: 35 min
Half-life, Human liver S9 [5]: 27 min

SMILES: COCC1=C(C(=O)O)N2C(=O)[C@@H](NC(=O)/C(=N\OC)c3csc(N)n3)[C@H]2SC1 [cefpodoxime]
MIC [15]: > 64 µg/mL

half-life at 10 μM [2, 18]: > 120 min
half-life at 10 μM [4, 18]: > 120 min
SMILES: CC1=C[C@@H]2CN(C(=O)N2O[C@H](F)C(=O)OC(C)C)[C@@H]1C(N)=O [Compound 16]

SMILES: COCC1=C(C(=O)OC(C)OC(=O)OC(C)C)N2C(=O)[C@@H](NC(=O)/C(=N\OC)c3csc(N)n3)[C@H]2SC1 (stereo partly drawn) [CPDP, cefpodoxime proxetil]
efficacy in thigh model (E. coli ARC2687): not efficacious

SMILES: CC1=C[C@@H]2CN(C(=O)N2OC(F)(F)C(=O)O)[C@@H]1C(N)=O [Compound 2]
IC50 (E. coli TEM-1 (Class A)): 0.001 µM
IC50 [16]: < 15 nM
